# Data as given in the supplement of paper PMC4862054.
# What was measured:
# Settings in all cases: 72 h
# HDQ-P1 [1] = test system: HDQ-P1
# Protocol: (§1)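 Drug sensitivity and resistance testing (DSRT) of breast cancer cell lines in 384-well plates, 5 concentrations in 10-fold dilutions over a compound-specific 10,000-fold range. After 72 h, cytotoxicity was read by CellTox Green fluorescence and viability by CellTiter-Glo luminescence (multiplexed), normalised to DMSO and benzethonium chloride controls. EC50 is the inflection point of the fitted dose-response curve (bottom asymptote free, so it can be relative for partial curves) and is censored at the highest tested concentration. Rows with DSS 0 (no meaningful response) were excluded.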
# MDA-MB-231 = test system: MDA-MB-231
# Protocol: as §1
# CAL-120 = test system: CAL-120
# Protocol: as §1
# MCF-10A [2] = test system: MCF-10A
# Outline: (§2)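 A 20 µl suspension of breast cancer cells was placed in 384-well plates that already contained compound at 5 concentrations in 10-fold steps across a compound-specific 10,000-fold range, and the plates were left for 72 h. CellTox Green fluorescence at 485/520 nm gave cell death, and CellTiter-Glo luminescence, read after 10 min at room temperature, gave viability. Each plate was normalised to 0.1 % DMSO and a positive kill control. EC50 was fitted from the curves and censored at the top concentration.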
# HCC1143 [3] = test system: HCC1143
# Outline: as §2
# HDQ-P1 [4] = test system: HDQ-P1; remark: listed apart in the source
# Outline: (§3)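 To measure viability, fluorescence at 560/590 nm was read after 2.5 µl CellTiter-Blue had been added for 2 h at 37 °C. Cells from breast cancer lines had been seeded in 20 µl suspension onto 384-well plates pre-loaded with compound dissolved in 5 µl medium and kept for 72 h. EC50 comes from a fitted percent-inhibition dose-response curve censored at the highest concentration, after per-plate normalisation to vehicle and a positive kill control, Z'-factor checks, and removal of rows with zero drug sensitivity score.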
# MCF-10A [5] = test system: MCF-10A; remark: listed apart in the source
# Protocol: as §1
# MFM-223 = test system: MFM-223
# Protocol: as §1
# MDA-MB-436 = test system: MDA-MB-436
# Protocol: as §1
# CAL-148 [6] = test system: CAL-148
# Protocol: as §1
# HCC1143 [7] = test system: HCC1143; remark: listed apart in the source
# Protocol: as §1
# HCC1599 = test system: HCC1599
# Protocol: as §1
# BT-474 = test system: BT-474
# Outline: as §3
# CAL-148 [8] = test system: CAL-148; remark: listed apart in the source
# Outline: as §2
# MDA-MB-453 = test system: MDA-MB-453
# Protocol: as §1
# HCC1937 = test system: HCC1937
# Protocol: as §1
Compound,"EC50, CellTox Green (HDQ-P1 [1]) [µM]","EC50, CellTox Green (MDA-MB-231) [µM]","EC50, CellTox Green (CAL-120) [µM]","EC50, CellTiter-Glo (MCF-10A [2]) [µM]","EC50, CellTiter-Glo (HCC1143 [3]) [µM]","EC50, CellTiter-Blue viability (HDQ-P1 [4]) [µM]","EC50, CellTox Green (MFM-223) [µM]","EC50, CellTox Green (MDA-MB-436) [µM]","EC50, CellTox Green (CAL-148 [6]) [µM]","EC50, CellTiter-Blue viability (BT-474) [µM]","EC50, CellTiter-Glo (CAL-148 [8]) [µM]",other results
CN[C@@H](C)C(=O)N[C@H]1CN(C(=O)CC(C)C)CC[C@H]2CC[C@@H](C(=O)NC(c3ccccc3)c3ccccc3)N2C1=O [AT-406],5.14,0.0812,,,,,,,,,,
CO[C@@H]1[C@H](N(C)C(=O)c2ccccc2)C[C@H]2O[C@]1(C)n1c3ccccc3c3c4c(c5c6ccccc6n2c5c31)C(=O)NC4 [Midostaurin],1.97,0.193,0.51,0.13,0.414,1.13,,,,,,
C=CCn1c(=O)c2cnc(Nc3ccc(N4CCN(C)CC4)cc3)nc2n1-c1cccc(C(C)(C)O)n1 [MK1775],0.467,0.203,1.38,0.621,0.558,0.318,0.267,0.0697,0.143,0.249,0.19,"EC50, CellTox Green (MCF-10A [5]): 1.27 µM; EC50, CellTox Green (HCC1143 [7]): 5.09 µM; EC50, CellTox Green (HCC1599): 0.0541 µM"
COc1cc(Nc2c(C#N)cnc3cc(OCCCN4CCN(C)CC4)c(OC)cc23)c(Cl)cc1Cl [Bosutinib],5.94,2.03,,0.442,1.44,2.55,,6.62,2.05,3.12,7.59,"EC50, CellTox Green (MCF-10A [5]): 2.08 µM; EC50, CellTox Green (MDA-MB-453): 7.28 µM; EC50, CellTox Green (HCC1937): 5.4 µM; EC50, CellTox Green (HCC1599): > 10 µM"
CC1(C)CCC(c2ccc(Cl)cc2)=C(CN2CCN(c3ccc(C(=O)NS(=O)(=O)c4ccc(N[C@H](CCN5CCOCC5)CSc5ccccc5)c(S(=O)(=O)C(F)(F)F)c4)cc3)CC2)C1 [Navitoclax],0.289,0.162,0.884,,,0.0274,2.2,,0.306,,1,
CN(Cc1cnc2nc(N)nc(N)c2n1)c1ccc(C(=O)N[C@@H](CCC(=O)O)C(=O)O)cc1 [Methotrexate],,,,,,,,17.9,,,,"EC50, CellTox Green (MDA-MB-453): > 50 µM"
Cn1cc(C2=C(c3cn(C4CCN(Cc5ccccn5)CC4)c4ccccc34)C(=O)NC2=O)c2ccccc21 [Enzastaurin],,,,,,1,,,,1.67,,
CNC(=O)c1ccccc1Sc1ccc2c(/C=C/c3ccccn3)n[nH]c2c1 [Axitinib],,,,,,0.474,,,,,,
Nc1ccn([C@@H]2O[C@H](CO)[C@@H](O)C2(F)F)c(=O)n1 [Gemcitabine],,,,0.0399,0.00933,,,,0.00969,,0.0128,
COc1ccc(S(=O)(=O)Nc2cccnc2Nc2ccc(O)cc2)cc1 [ABT-751],,0.497,> 10,5.77,0.644,0.245,5.43,0.116,,0.552,6.97,"EC50, CellTox Green (MCF-10A [5]): 6.83 µM"
C=CCN(/C=C1/C(=O)O[C@H](COC)[C@@]2(C)C1=C(O)C(=O)C1=C2[C@H](OC(C)=O)C[C@]2(C)C(=O)CC[C@@H]12)CC=C [PX-866],,,,,,2.17,,,,1.68,,
C/C(=C\c1csc(C)n1)[C@@H]1C[C@@H]2O[C@]2(C)CCC[C@H](C)[C@H](O)[C@@H](C)C(=O)C(C)(C)[C@@H](O)CC(=O)N1 [Ixabepilone],,,,,,,,,,0.672,,
CC(C)n1cnc2c(NCCc3ccc(O)cc3)nc(-c3csc4ccccc34)nc21 [StemRegenin 1],,,,,,,2.81,,,,,
